From ChEMBL document CHEMBL1201862, “PubChem BioAssay data set” (2004)
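Interpolation was linear, between the two tested concentrations surrounding the appropriate level; five concentrations were tested over 48 hours in 96-well plates. GI50 is the concentration that inhibits growth by half.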 The source made the active and inactive calls. Rule as the data show it: active = GI50 up to about 1.1 µM and inactive = higher.

Key:
Assay in all cases: NCI anticancer screen, dose series, 48 h
ACHN = tested on: ACHN
CAKI-1 = tested on: CAKI-1
COLO 205 = tested on: COLO 205
HCT-15 = tested on: HCT-15
HL-60 = tested on: HL-60
HT-29 = tested on: HT-29
K562 = tested on: K562
MOLT-4 = tested on: MOLT-4
NCI-H23 = tested on: NCI-H23
NCI-H522 = tested on: NCI-H522
OVCAR-4 = tested on: OVCAR-4
SF-268 = tested on: SF-268
SF-539 = tested on: SF-539
SN12C = tested on: SN12C
UACC-257 = tested on: UACC-257
UACC-62 = tested on: UACC-62
OVCAR-5 = tested on: OVCAR-5
TK-10 = tested on: TK-10

Compound	GI50 (ACHN)	GI50 (CAKI-1)	GI50 (COLO 205)	GI50 (HCT-15)	GI50 (HL-60)	GI50 (HT-29)	GI50 (K562)	GI50 (MOLT-4)	GI50 (NCI-H23)	GI50 (NCI-H522)	GI50 (OVCAR-4)	GI50 (SF-268)	GI50 (SF-539)	GI50 (SN12C)	GI50 (UACC-257)	GI50 (UACC-62)	GI50 (OVCAR-5)	GI50 (TK-10)
CCOC1=C2N=C(Cc3ccccc3F)N=C2C(=O)c2ccccc21	> 100 µM (inactive)	> 100 µM (inactive)	> 100 µM (inactive)	> 100 µM	> 100 µM (inactive)	> 100 µM (inactive)	> 100 µM (inactive)	> 100 µM (inactive)	> 100 µM (inactive)	> 100 µM (inactive)	> 100 µM (inactive)	> 100 µM (inactive)	> 100 µM (inactive)	> 100 µM (inactive)	> 100 µM (inactive)	> 100 µM (inactive)		
N#C/C(=C\c1cc(O)ccc1O)C(N)=O	26.8 µM (inactive)	46.2 µM (inactive)	33.3 µM (inactive)	44.2 µM	14 µM (inactive)	38.8 µM (inactive)	27 µM (inactive)	27 µM (inactive)	36.2 µM (inactive)	18.2 µM (inactive)	54 µM (inactive)	35.1 µM (inactive)	50.7 µM (inactive)	50.4 µM (inactive)	28.4 µM (inactive)	30.4 µM (inactive)	> 100 µM (inactive)	50.8 µM (inactive)
CCc1ccc(Cc2ccc(CC)c(NC(=O)C(=O)Cc3nc4ccccc4nc3C)c2CC)c(CC)c1NC(=O)C(=O)Cc1nc2ccccc2nc1C	61.2 µM (inactive)	25.4 µM (inactive)	> 100 µM (inactive)	> 100 µM	> 100 µM (inactive)		> 100 µM (inactive)	40.6 µM (inactive)	> 100 µM (inactive)	26.4 µM (inactive)	72.3 µM (inactive)	33.3 µM (inactive)	36.8 µM (inactive)		> 100 µM (inactive)	> 100 µM (inactive)	> 100 µM (inactive)	> 100 µM (inactive)
CCCCCCCCCCn1cccc1/C=C/c1ccc(/C=C/c2cccn2CCCCCCCCCC)cc1	> 100 µM (inactive)	> 100 µM (inactive)	> 100 µM (inactive)		> 100 µM (inactive)	> 100 µM (inactive)	> 100 µM (inactive)		> 100 µM (inactive)	> 100 µM (inactive)	> 100 µM (inactive)	> 100 µM (inactive)	> 100 µM (inactive)	> 100 µM (inactive)	> 100 µM (inactive)	> 100 µM (inactive)	> 100 µM (inactive)	> 100 µM (inactive)
O=C(O)CCNCCCCNCCC(=O)O	> 100 µM (inactive)	> 100 µM (inactive)	> 100 µM (inactive)	> 100 µM	> 100 µM (inactive)	> 100 µM (inactive)	> 100 µM (inactive)	> 100 µM (inactive)	> 100 µM (inactive)	> 100 µM (inactive)	> 100 µM (inactive)	> 100 µM (inactive)	> 100 µM (inactive)	> 100 µM (inactive)		> 100 µM (inactive)	> 100 µM (inactive)	> 100 µM (inactive)
CCOP(=O)(OCC)C(C(=O)OC)C(=O)C(=O)Nc1ccc(Cl)cc1Cl (stereo unspecified)	> 100 µM (inactive)	> 100 µM (inactive)	> 100 µM (inactive)	> 100 µM	> 100 µM (inactive)	> 100 µM (inactive)	> 100 µM (inactive)	> 100 µM (inactive)	> 100 µM (inactive)	> 100 µM (inactive)	> 100 µM (inactive)	> 100 µM (inactive)	> 100 µM (inactive)	> 100 µM (inactive)	> 100 µM (inactive)	> 100 µM (inactive)	> 100 µM (inactive)	> 100 µM (inactive)
